Among the data in PMC4352019, “Bioactivity-Guided Fractionation of an Antidiarrheal Chinese Herb Rhodiola kirilowii (Regel) Maxim Reveals (-)–Epicatechin-3-Gallate and (-)–Epigallocatechin-3-Gallate as Inhibitors of Cystic Fibrosis Transmembrane Conductance Regulator” (PLoS ONE, 2015) are IC50 values, retold here.

In the experiment the target is T1, Cystic fibrosis transmembrane conductance regulator (CFTR) (Homo sapiens, UniProt P13569).
T1 construct: human wild-type CFTR stably expressed in FRT cells
T1 sequence (P13569 whole entry): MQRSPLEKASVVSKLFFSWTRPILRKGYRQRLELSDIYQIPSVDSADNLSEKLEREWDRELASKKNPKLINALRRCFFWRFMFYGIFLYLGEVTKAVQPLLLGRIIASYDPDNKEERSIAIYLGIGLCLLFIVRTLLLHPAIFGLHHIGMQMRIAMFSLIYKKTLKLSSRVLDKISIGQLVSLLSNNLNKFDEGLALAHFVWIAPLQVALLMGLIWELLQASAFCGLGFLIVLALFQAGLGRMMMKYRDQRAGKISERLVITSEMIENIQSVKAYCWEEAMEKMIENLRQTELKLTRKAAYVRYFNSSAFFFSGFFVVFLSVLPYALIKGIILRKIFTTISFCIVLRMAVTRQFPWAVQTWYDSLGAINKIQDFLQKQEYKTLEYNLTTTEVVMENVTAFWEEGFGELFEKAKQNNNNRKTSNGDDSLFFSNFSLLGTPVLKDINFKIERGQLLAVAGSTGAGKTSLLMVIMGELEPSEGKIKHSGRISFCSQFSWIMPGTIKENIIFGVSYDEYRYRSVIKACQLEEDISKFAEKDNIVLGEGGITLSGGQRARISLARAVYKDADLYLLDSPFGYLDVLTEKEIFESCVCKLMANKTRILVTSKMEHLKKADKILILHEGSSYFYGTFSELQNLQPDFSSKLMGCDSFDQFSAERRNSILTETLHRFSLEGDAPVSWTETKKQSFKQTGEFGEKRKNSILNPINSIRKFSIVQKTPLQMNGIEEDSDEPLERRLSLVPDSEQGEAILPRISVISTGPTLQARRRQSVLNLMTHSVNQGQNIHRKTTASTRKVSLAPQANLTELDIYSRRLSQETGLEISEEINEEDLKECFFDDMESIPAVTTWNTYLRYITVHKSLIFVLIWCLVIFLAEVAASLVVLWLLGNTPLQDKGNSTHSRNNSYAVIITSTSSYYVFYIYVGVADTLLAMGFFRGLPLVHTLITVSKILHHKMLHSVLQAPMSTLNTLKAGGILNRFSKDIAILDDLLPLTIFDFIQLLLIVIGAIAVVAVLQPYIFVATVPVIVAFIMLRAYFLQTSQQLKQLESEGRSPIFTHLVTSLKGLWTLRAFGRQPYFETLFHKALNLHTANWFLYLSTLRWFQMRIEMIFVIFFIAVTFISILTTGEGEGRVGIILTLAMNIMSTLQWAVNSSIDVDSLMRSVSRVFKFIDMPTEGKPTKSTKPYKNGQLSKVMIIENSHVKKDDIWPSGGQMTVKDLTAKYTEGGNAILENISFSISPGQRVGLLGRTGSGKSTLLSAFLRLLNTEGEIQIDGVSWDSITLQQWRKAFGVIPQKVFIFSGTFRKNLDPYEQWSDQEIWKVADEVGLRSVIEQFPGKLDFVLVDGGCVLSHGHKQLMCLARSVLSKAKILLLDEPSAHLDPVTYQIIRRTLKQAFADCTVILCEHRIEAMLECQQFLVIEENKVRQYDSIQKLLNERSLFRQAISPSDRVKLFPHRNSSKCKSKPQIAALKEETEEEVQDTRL
Nature of the experiment: YFP-H148Q iodide influx fluorescence assay in CFTR-expressing FRT cells; supported by short-circuit current in rat colonic mucosa. Format: cell-based.

As to `O=C(O[C@@H]1Cc2c(O)cc(O)cc2O[C@@H]1c1cc(O)c(O)c(O)c1)c1cc(O)c(O)c(O)c1` [C2, (-)–epigallocatechin-3-gallate], the IC50 is ~100 µM.
